According to article PMC9314723, “The aqueous stability and interactions of organoruthenium compounds with serum proteins, cell culture medium, and human serum” (Metallomics: Integrated Biometal Science, 2022):

Assays:
Tf [1] = molecular target: T1, Tf (Homo sapiens, UniProt P02787); assay: CZE interaction study with Tf; assay type: binding
T1 construct: purchased Sigma-Aldrich
Method: (§1) Stock solutions of HSA and Tf in BGE were prepared (400 μM). Studies were performed for 1 and 2 at complex (200 μM):protein ratios of 1:1, 10:1, and 20:1. The PCA complex 3 was investigated at complex (200 μM):protein ratios of 20:1 and 50:1 for HSA and at 10:1 and 20:1 for Tf. Samples were prepared just before the first measurement. BGE was used for dilution and [Co(acac)3] was added as the internal standard to all samples at a final concentration of 100 μM.
(§2) All measurements were performed in at least triplicate on a CE system G7100 (Agilent, Waldbronn, Germany) equipped with a long-life deuterium lamp (8 pin) with an radio-frequency identification (RFID) tag. A capillary (fused silica, 50 μm ID, Polymicro Technologies) with a total length of 50 cm and an effective length of 40 cm was installed for the separation with ultraviolet (UV) detection. The capillary zone electrophoresis (CZE)–UV data and peak areas presented were recorded at 200 nm, while the internal standard signal was recorded at 254 nm in the samples containing αMEM and human serum, as other neutral species were overlapping the signal at 200 nm. For HSA binding site studies, 210 nm was selected as the evaluation wavelength.
(§3) New capillaries were conditioned with HCl (0.1 M) and H2O followed by NaOH (1.0 M) and H2O for 10 min each followed by flushing with BGE [phosphate buffer (20 mM, pH 7.4)] for 20 min. The same procedure was carried out as daily conditioning. The capillary was flushed with BGE (3 min) before each run and was rinsed with HCl (0.1 M; 30 s), H2O (30 s), NaOH (1.0 M, 2 min), and H2O (2 min) after each separation. The sample tray and the capillary were kept at 25°C. Samples were injected hydrodynamically (50 mbar for 5 s) and the voltage applied was +20 kV for 5 min. The current reading was 23–24 μA.

[2] = set-up: method as in PMID 31357065; conditions: cited from earlier work
Aqueous solubility = assay type: physicochemical
HSA binding site II = molecular target: T2, HSA binding site II (Homo sapiens, UniProt P02768); assay: Competitive displacement study, HSA binding site II (Ds marker), CZE; conditions: for % Ds bound: Ds:HSA (100 μM) 2:1, n = 3
T2 construct: purchased Sigma-Aldrich A1653
Method: The affinity of complex 1 for binding sites I and II on HSA was investigated with Wf as the site marker for binding site I and Ds for site II by tracking the peak area for unbound Wf and Ds, respectively. Stock solutions of Wf, Ds, and HSA were prepared in H2O at concentrations of 800, 800, and 200 μM, respectively. Wf or Ds were incubated with HSA (100 μM) at a ratio of 2:1 for at least 1 h at room temperature before complex 1 was added at final concentrations of 200, 400, or 800 μM. The final concentration of methanol was 10% in all samples. Calibration curves for Wf or Ds in the range of 50–300 μM were determined before the start of each displacement study, to allow for accurate quantification of the amounts of Ds or Wf displaced by complex 1.
as §2
(§4) For the binding site studies with HSA, a modified version of a CE method was applied.[21] Before each run, the capillary was flushed with BGE (2 min), then +28 kV voltage was applied for 30 s followed by 1 min of flushing with BGE and the capillary was rinsed with HCl (0.1 M; 2 min), H2O (2 min), NaOH (1.0 M, 2 min), and H2O (2 min) after each separation. The sample tray and the capillary were kept at 25°C. Samples were injected hydrodynamically (30 mbar for 5 s) and the voltage applied was +28 kV for 5 min. The current reading was 34 μA.

[3] = CZE stability study in H2O and 20 mM phosphate buffer (pH 7.4); assay type: physicochemical; conditions: 200 μM; for Stability in water (peak areas of cationic species constant): complex cations of 2 and 3, or initial aquation products of 1 and 3, CZE over 24 h
Method: Stability studies of complexes 1–3 were carried out in both H2O and 20 mM phosphate buffer (pH 7.4). Stock solutions for the complexes were prepared in methanol (2 mM). The samples were diluted just before the first measurement to a final complex concentration of 200 μM. Tris(acetylacetonato)cobalt(III) [Co(acac)3] was added as an internal standard to all samples at a final concentration of 100 μM. The stability was studied for 24 h by monitoring changes in the peak areas over time.
as §2, §3

HSA binding site I = molecular target: T3, HSA binding site I (Homo sapiens, UniProt P02768); assay: Competitive displacement study, HSA binding site I (Wf marker), CZE; conditions: for % Wf bound: Wf:HSA (100 μM) 2:1, n = 3
T3 construct: purchased Sigma-Aldrich A1653
Method: The final concentration of methanol was 10% in all samples.
as §2, §4

HSA = molecular target: T4, HSA (Homo sapiens, UniProt P02768); assay: CZE interaction study with HSA; assay type: binding
T4 construct: purchased Sigma-Aldrich A3782
Method: as §1, §2, §3

Tf [4] = molecular target: T1, Tf; assay: FT-ICR-MS adduct formation with Tf; assay type: binding; conditions: complex:Tf 5:1 in water
Method: The adduct formation between complex 1 and Tf was further studied using a Bruker Solarix XR 7 T FT–ICR–MS. A mixture of 1 and Tf in ratio 5:1 in H2O (18 MΩ, Millipore) was incubated for 24 h. A sample was collected after 0 and 24 h, and the samples were frozen until analysis. The samples were diluted 1:100 with 0.1% formic acid in H2O (18 MΩ, Millipore) prior to analysis, producing a final concentration of 2 μM for complex 1 and 0.4 μM for Tf. A separate standard of Tf at 0.4 μM was also prepared and analyzed.

human cancer cells = conditions: cited from earlier work
[5] = CZE interaction study with cell culture medium; assay type: in vitro ADME; conditions: complex 200 μM, medium diluted 1:10, complex:albumin 133:1
Method: The interactions of complexes 1–3 with cell culture medium (αMEM with 5% FBS) were investigated. The αMEM was diluted 1:10 with BGE and the complex concentrations were kept at 200 μM and [Co(acac)3] at 100 μM. The dilution corresponded to a complex:albumin ratio of 133:1.
as §2
(§5) New capillaries were conditioned with HCl (0.1 M) and H2O followed by NaOH (1.0 M) and H2O for 10 min each followed by flushing with BGE [phosphate buffer (20 mM, pH 7.4)] for 20 min. The same procedure was carried out as daily conditioning. […] The current reading was 23–24 μA.

[6] = CZE interaction study with human serum; assay type: in vitro ADME; conditions: complex 200 μM, serum diluted 1:100, complex:albumin about 50:1
Method: The interactions of complexes 1–3 with human serum were investigated after diluting the serum 1:100 with BGE and the complex concentrations were kept at 200 μM and for [Co(acac)3] at 100 μM. The dilution corresponded to a complex:protein ratio of about 50:1 with regard to albumin content.
as §2, §5

plectin = test system: plectin; set-up: method as in earlier work; conditions: cited from earlier work
HSA and Tf = test system: HSA and Tf; set-up: method as in PMID 15907879; conditions: cited from earlier work

T3 sequence (P02768 25-609): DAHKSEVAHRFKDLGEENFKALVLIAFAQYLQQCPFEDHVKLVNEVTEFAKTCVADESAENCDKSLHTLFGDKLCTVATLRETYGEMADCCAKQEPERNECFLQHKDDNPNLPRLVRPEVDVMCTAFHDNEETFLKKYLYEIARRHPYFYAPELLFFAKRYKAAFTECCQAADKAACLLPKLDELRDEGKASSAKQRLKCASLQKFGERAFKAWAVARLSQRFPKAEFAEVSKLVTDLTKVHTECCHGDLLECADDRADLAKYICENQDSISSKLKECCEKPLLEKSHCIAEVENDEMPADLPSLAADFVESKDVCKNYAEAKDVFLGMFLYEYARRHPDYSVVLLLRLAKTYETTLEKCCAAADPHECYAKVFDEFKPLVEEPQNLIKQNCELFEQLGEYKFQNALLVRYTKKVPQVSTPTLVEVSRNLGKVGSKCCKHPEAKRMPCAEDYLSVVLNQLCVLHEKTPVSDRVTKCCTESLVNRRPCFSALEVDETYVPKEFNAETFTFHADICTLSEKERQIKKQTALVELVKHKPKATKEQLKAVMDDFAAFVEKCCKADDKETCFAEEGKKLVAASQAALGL
T2 sequence (P02768 25-609): as above
T4 sequence (P02768 25-609): as above
T1 sequence (P02787 20-698): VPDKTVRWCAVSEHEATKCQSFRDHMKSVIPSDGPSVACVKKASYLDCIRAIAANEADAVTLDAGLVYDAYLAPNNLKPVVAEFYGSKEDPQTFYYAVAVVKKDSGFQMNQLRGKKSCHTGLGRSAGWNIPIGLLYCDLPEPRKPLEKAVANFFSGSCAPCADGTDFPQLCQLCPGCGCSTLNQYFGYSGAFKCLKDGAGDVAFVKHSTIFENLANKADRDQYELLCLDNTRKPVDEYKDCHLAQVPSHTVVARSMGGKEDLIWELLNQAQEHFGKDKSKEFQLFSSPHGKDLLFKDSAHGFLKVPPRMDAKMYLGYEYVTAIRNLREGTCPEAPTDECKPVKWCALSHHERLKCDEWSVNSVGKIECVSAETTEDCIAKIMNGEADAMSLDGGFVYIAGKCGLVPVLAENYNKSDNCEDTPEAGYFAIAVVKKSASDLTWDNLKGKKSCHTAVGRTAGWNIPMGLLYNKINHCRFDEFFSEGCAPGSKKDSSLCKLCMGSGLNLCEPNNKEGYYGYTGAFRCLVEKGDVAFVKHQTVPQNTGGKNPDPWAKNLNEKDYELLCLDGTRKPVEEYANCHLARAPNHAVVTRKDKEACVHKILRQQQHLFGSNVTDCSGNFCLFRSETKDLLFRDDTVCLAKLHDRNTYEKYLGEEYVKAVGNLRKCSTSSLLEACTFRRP

Cc1ccc(C(C)C)cc1.[Cl-].[O-]c1cccc2cccnc12.[Ru+2] [Complex 1, [Ru^II(cym)(8-HQ)Cl]]
Binding to Tf, complex peak (Tf [1]; complex (200 μM):Tf 1:1): complex peak was not detectable in the first run
Binding to Tf (Tf [1]; complex (200 μM):Tf 10:1, over 2 h): majority of complex 1 was found attached to either protein
Fraction of complex remaining unbound (Tf [1]; complex (200 μM):Tf 20:1, after 2 h): about a quarter to a third
Halido/aqua ligand exchange in aqueous environment (1H NMR) [2]: undergo halido/aqua ligand exchange quickly
Aqueous solubility (Aqueous solubility): limited aqueous solubility
% Ds bound (HSA binding site II; 200 μM complex 1, 0 h): 44 ± 6%
% Ds bound (HSA binding site II; 200 μM complex 1, 24 h): 50 ± 7%
% Ds bound (HSA binding site II; 200 μM complex 1, 48 h): 45 ± 7%
% Ds bound (HSA binding site II; 400 μM complex 1, 0 h): 35 ± 7%
% Ds bound (HSA binding site II; 400 μM complex 1, 24 h): 19 ± 11%
% Ds bound (HSA binding site II; 400 μM complex 1, 48 h): 33 ± 7%
% Ds bound (HSA binding site II; 800 μM complex 1, 0 h): Fully displaced
% Ds bound (HSA binding site II; 800 μM complex 1, 24 h): Fully displaced
% Ds bound (HSA binding site II; 800 μM complex 1, 48 h): Fully displaced
Binding to site II on HSA (displacement of Ds) (HSA binding site II; at higher molar ratios): binds to both sites I and II on HSA
Speciation on dilution with water or BGE ([3]; migration relative to EOF marker [Co(acac)3]): underwent ligand exchange to form a cationic species
Stability in water (peak areas of cationic species constant) [3]: at least 24 h
% Wf bound (HSA binding site I; 200 μM complex 1, 0 h): 58 ± 4%
% Wf bound (HSA binding site I; 200 μM complex 1, 24 h): 59 ± 4%
% Wf bound (HSA binding site I; 200 μM complex 1, 48 h): 51 ± 4%
% Wf bound (HSA binding site I; 400 μM complex 1, 0 h): 26 ± 9%
% Wf bound (HSA binding site I; 400 μM complex 1, 24 h): 23 ± 5%
% Wf bound (HSA binding site I; 400 μM complex 1, 48 h): 33 ± 8%
% Wf bound (HSA binding site I; 800 μM complex 1, 0 h): Fully displaced
% Wf bound (HSA binding site I; 800 μM complex 1, 24 h): Fully displaced
% Wf bound (HSA binding site I; 800 μM complex 1, 48 h): Fully displaced
Binding to site I on HSA (displacement of Wf) (HSA binding site I; at higher molar ratios): binds to both sites I and II on HSA
Binding to HSA, complex peak (HSA; complex (200 μM):HSA 1:1): complex peak was not detectable in the first run
Binding to HSA (HSA; complex (200 μM):HSA 10:1, over 2 h): majority of complex 1 was found attached to either protein
Fraction of complex remaining unbound (HSA; complex (200 μM):HSA 20:1, after 2 h): about a quarter to a third
Adducts formed with Tf (Tf [4]; after 24 h): [Tf + 3 Ru(cym)(8-HQ)] was dominant
Adducts formed with Tf (Tf [4]; immediately after mixing (0 h)): adducts with one, two, and three Ru(cym)(8-HQ) moieties attached to the protein
IC50 values (antiproliferative properties) (human cancer cells): low micromolar range

C1N2CN3CN1CP(C2)C3.Cc1ccc(C(C)C)cc1.O=S(=O)([O-])C(F)(F)F.[O-]c1cccc2cccnc12.[Ru+2] [Complex 2, [Ru^II(cym)(8-HQ)(PTA)](SO3CF3)]
Interaction with Tf (Tf [1]; complex (200 μM):Tf 1:1, 10:1, 20:1, over 1 d): does not interact with either protein
Halido/aqua ligand exchange in aqueous environment (1H NMR) [2]: inert
Interaction with αMEM spiked with 5% FBS [5]: no interactions were observed
Interaction with human serum [6]: no interactions were observed
Stability in water (peak areas of cationic species constant) [3]: at least 24 h
Interaction with HSA (HSA; complex (200 μM):HSA 1:1, 10:1, 20:1, over 1 d): does not interact with either protein

Cc1ccc(C(C)C)cc1.Fc1ccc(NC(=S)c2ccccn2)cc1.[Cl-].[Cl-].[Ru+2] [Complex 3, [Ru^II(cym)(PCA)Cl]Cl]
Decrease in Tf peak area (Tf [1]; complex:Tf 10:1): 62%
Decrease in Tf peak area (Tf [1]; complex:Tf 20:1): 82%
Decrease in peak area of complex 3 (Tf [1]; complex:Tf 20:1): 37%
Interaction with αMEM spiked with 5% FBS [5]: precipitation was observed
Protein target (plectin): specifically target the scaffold protein and cytolinker plectin
Interaction with human serum [6]: precipitation was observed
Stability in water (peak areas of cationic species constant) [3]: at least 24 h
Observation on incubation with HSA (HSA; complex (200 μM):HSA 20:1 and 50:1, data not analysable): precipitation
IC50 values (antiproliferative properties) (human cancer cells): low micromolar range

[Cl-].[Cl-].[Cl-].[Cl-].[Ru+3].c1ccc2[nH][nH+]cc2c1.c1ccc2[nH]ncc2c1.c1ccc2[nH]ncc2c1 [KP1019, Indazolium Trans-[Tetrachlorobis(1H-Indazole)Ruthenate(III)]]
Relative rate of binding to serum proteins (HSA and Tf): bind quicker to Tf than HSA
